Experimental findings from patent publication US10292994B2, “Bioactive fractions and compounds from Dalbergia sissoo for the prevention or treatment of osteo-health related disorders” (Council of Scientific & Industrial Research, priority 2011, dated 2019) are described below.

Structures are written as SMILES. Marks after values point to notes of the source that are not given here. Where only a bound is given, the exact number is not on record here.

One data set concerns Calvarial osteoblasts. Nature of the data set: Osteoblast alkaline phosphatase (ALP) activity. It is filed as cell-based, rat. As to conditions: for ALP activity: calvarial osteoblasts, 10 days culture, FIG. 6. On the procedure: (§1) Neonatal rat calvarial cell cultures are prepared as described previously (Chattopadhyay et al., Endocrinology 145:3451-62, 2004) using slight modification. Briefly, for calvarial osteoblast cultures, frontal and parietal bones from neonatal Sprague-Dawley rats (1-3 day old) were digested in 0.1% collagenase/0.1% dispase in α-MEM to obtain 5 sequential digests. The second through fifth digests are combined and grown to confluence at 37° C. and 5% CO2 in air in α-MEM, supplemented with 10% fetal bovine serum (FBS), 2 mM glutamine, 100 U/ml penicillin-streptomycin, non-essential amino acid solution and sodium pyruvate. These osteoblast cells were further used to test thirteen pure compounds designated as 1-13. During the course of culture, pre-osteoblasts undergo three characteristic stages of osteoblasts with the expression of stage specific genes. These are: • Proliferation & differentiation: Days 1-12 • Genes—cbfa1, Osterix, Alkaline phosphatase, • Collagen-1 • Extra-cellular matrix maturation: Days 12-18 • Genes—Osteocalcin, Osteopontin, Fibronectin • Mineralization: Days 14-35 • Feature—Calcification (nodule formation) Measurement of Osteoblast Alkaline Phosphatase (ALP) Activity
Calvarial osteoblasts cells were plated (1500 cells/well in 12 well plate) in the osteoblast differentiation medium and the culture was continued for 10 days with or without treatment with these compounds. This is the time when the ALP levels peak, and serves as an osteoblast differentiation marker. The cells at this point were washed twice with PBS and then plates were fixed by keeping them at −70° C. for 1 h, and then brought to room temperature to determine ALP activity. The rate of the reaction here is directly proportional to the enzyme activity, which itself is proportional to osteoblast differentiation. The O.D. was measured at 405 nm with a microplate reader.

The next data set deals with Osteoblasts. Description: Osteoblast growth / toxicity (MTT). It counts as cell-based, rat. The conditions noted are these: FIG. 8; for growth / proliferation of the osteoblastic cells: 1 pM to 1 μM, 48 h. The method, then: as §1, with “Briefly,” for “Neonatal rat calvarial cell cultures are prepared as described previously (Chattopadhyay et al., Endocrinology 145:3451-62, 2004) using slight modification. Briefly,”
Many isoflavonoids at micromolar concentrations are known to inhibit osteoblast cell growth. Osteoblasts were cultured in the absence or presence of compounds (dissolved in 0.01% DMSO final concentration) at various concentrations (1 pM to 1 μM) for 48 h. Cells receiving vehicle (0.01% DMSO) served as control. After incubation, the cells were washed with PBS. Then, cells were treated with MTT solution (5 mg/10 mL in DMEM devoid of Phenol Red) for 4 h. Formazon crystals formed were dissolved in DMSO and O.D. was taken at 540 nm.

The test system of data set [1] is bone morphogenetic protein (BMP-2). Nature of the data set: In vivo osteogenic efficacy: BMP-2 expression in calvaria by qPCR. The conditions noted are these: calvaria of 1- to 2-day-old rats, 5.0 mg·kg−1·day−1 s.c. for 3 consecutive days, fold change over vehicle/untreated, FIG. 7. Set-up: species or system rat. An excerpt:
The results are expressed as fold change over untreated cells (FIG. 7).
Background: Quantitative PCR measures a nucleic acid by following its amplification.

In data set [2] the test system is ovariectomized Balb/c mice. Description: μCT trabecular microarchitecture after 8 weeks treatment of osteopenic OVx mice. It counts as in vivo, mouse. On the set-up: Tb. Th. / Tb. Sp.: unit not given here. The conditions noted are these: for SMI / Tb. No. / Tb. Sp. / Tb. Th. / BV/TV: 8 weeks; for BV/TV: osteopenic OVx mice, mean ± S.D. The method, then: The study was conducted in accordance with current legislation on animal experiments [Institutional Animal Ethical Committee (IAEC)] at C.D.R.I. Balb/c mice weighing ˜25-30 gm were either bilaterally ovariectomized (OVx) or exposed to a sham surgical procedure. After ovariectomy, mice were left for 30 days for osteopenia to develop. Mice were individually housed at 21° C., in 12-h light:12-h dark cycles. All mice had excess to normal chow diet and water ad libitum. […], treatment in the form of gavage (1.0 mg and 5.0 mg/kg body weight) was given daily. Equal numbers of OVx and sham operated mice served as the control, and were given vehicle. At the end of 8 weeks, mice were euthanized. At autopsy, both femur and tibia were dissected and separated from adjacent tissue, cleaned, and used for μCT measurements.

The test system of data set [3] is bone marrow stromal cells. Description: Mineralization of bone marrow stromal cells of estrogen deficient rats. It is filed as in vivo, rat. As to conditions: estrogen deficient (OVx) rats vs OVx rats treated with vehicle; estrogen 2.5 μg/kg.
For data set [4], the system named is ovariectomized (OVx) Sprague Dawley rats. Description: μCT trabecular microarchitecture after 12 weeks treatment of OVx rats. It counts as in vivo, rat. As to conditions: for SMI / Tb. No. / Tb. Sp. / Tb. Th.: estradiol 2.5 μg·kg−1·day−1; for BV/TV: estradiol 2.5 μg·kg−1·day−1, mean ± S.D. On the procedure:
The study was conducted in accordance with current legislation on animal experiments [Institutional Animal Ethical Committee (IAEC)] at C.D.R.I. […] Sprague Dawley rats weighing 180-200 gm were either bilaterally ovariectomized (OVx) or exposed to a sham surgical procedure. All rats were individually housed at 21° C., in 12-h light:12-h dark cycles. All rats had excess to normal chow diet and water ad libitum. After OVx, the rats were left for 12 weeks to develop osteopenia. […] Equal numbers of OVx and sham operated rats served as the control, and were given vehicle (20% ethanol). The rats were weighed each week. […] After twenty-four hours of fasting urine samples were collected in fresh containers, centrifuged at 2000 rpm at room temperature and stored at -20° C. until analyzed. Rats were then euthanized. At autopsy, blood samples were collected by cardiac puncture in tubes, and serum samples collected and frozen until analysis. Uteri were carefully excised, gently blotted, weighed, and fixed for histology and histomorphometry. About 5 mm pieces from the middle segment of each uterus were dehydrated in ascending grades of ethanol, cleared in xylene, and embedded in paraffin wax using standard procedures. Representative transverse sections (5 μm) were stained with H&E stain. Photomicrographs of sections were obtained using a Leica DC 300 camera and Leica IM50 Image Acquisition software fitted to a Leica DMLB microscope. Histomorphometric measurements were done using Leica Qwin-Semiautomatic image Analysis software. μCT (both 2-D and 3-D) determination of excised bones was carried out using the Sky Scan 1076 μCT scanner (Aartselaar, Belgium) using the cone-beam reconstruction software version 2.6 based on the Feldkamp algorithm (Skyscan). The bone marrow was harvested for ex vivo experiments. Both femora were dissected and separated from adjacent tissue, cleaned, and used for RNA isolation and also micro measurements. Trabecular response to A-4744/[…] treatment of OVx rats was quantified at the femur epiphysis and tibial proximal metaphysis.

Setting [5] is: femur, OVx mice, 1 mg · kg^-1 · day^-1.
[6] abbreviates: femur, OVx mice, 5 mg · kg^1 · day^1.
Setting [7] is: tibia, OVx mice, 1 mg · kg^-1 · day^-1.
[8] abbreviates: tibia, OVx mice, 5 mg · kg^1 · day^1.

With `COc1ccc(-c2coc3cc(O)cc(O)c3c2=O)cc1` [Compound 1, Biochanin A], the ALP activity entry in the data set with Calvarial osteoblasts is on record as “significantly increased”. Moreover, in the data set with Osteoblasts, the “growth / proliferation of the osteoblastic cells” value (“growth / proliferation” below) was “proliferation”.
In the case of `COc1cc(-c2coc3cc(O)cc(O)c3c2=O)ccc1O` [Compound 3, Pratensein or 3′-methoxygenistein], the ALP activity result with Calvarial osteoblasts was “significantly increased”. Moreover, the “growth / proliferation” value with Osteoblasts is reported as “proliferation”.
Turning to `O=c1c(-c2ccc(O)cc2)coc2cc(O)cc(O)c12` [Compound 4, Genstein], the ALP activity result in the data set on Calvarial osteoblasts is reported as “significantly increased”. The “increase in BMP-2 expression” value in data set [1] worked out at 5 fold. Besides, the “growth / proliferation” value in the data set with Osteoblasts is reported as “proliferation”.
For `COc1ccc(-c2coc3cc(O[C@@H]4OC(CO)[C@@H](O)[C@H](O)C4O)cc(O)c3c2=O)cc1` (stereo partly drawn) [Compound 6, Biochanin 7-O-glycoside], the melting point lay in the range of 206 to 208 °C. Moreover, in the data set with Calvarial osteoblasts, the ALP activity entry is given as “significantly increased”. Moreover, the “growth / proliferation” value in the data set with Osteoblasts is recorded as “proliferation”.
`COc1cc(OC)c(-c2coc3cc(O[C@@H]4OC(COC5OCC(O)(CO)C5O)[C@@H](O)C(O)C4O)c(OC)c(O)c3c2=O)cc1OC` (stereo partly drawn) [Compound 10] had a melting point of 135 to 138 °C. In addition, the ALP activity entry in the data set with Calvarial osteoblasts is “significantly increased”. In the data set on Calvarial osteoblasts (over the control, listed as Caviunin 7-O-[β-D-apiofuranosyl-(1→6)-β-D-glucopyranoside]), the “increase in osteoblast differentiation over the control, assessed by ALP production” value is reported as greater than 1.0 fold. In addition, the “increase in BMP-2 expression” value in data set [1] turned out to be 15 fold. Besides, the “growth / proliferation” value with Osteoblasts was “proliferation”. In the data set on Osteoblasts (osteoblasts, 1 pM to 1 μM for 48 h, vs vehicle control), the “toxicity to the cells” value is recorded as “not toxic”. Further, the “trabecular bone in tibia metaphysis” value in data set [2] (OVx mice) was “significantly restored”. In data set [2] (femur epiphysis of OVx mice compared to OVx+vehicle mice), the “Tb.sp and SMI” value is recorded as “increased”. In data set [2] (femur epiphysis of OVx mice compared with OVx+vehicle group), the “BV/TV, Tb.Th and Tb.N” value is recorded as “increased”. Further, in data set [2] (setting [5]), the SMI was 1.992 ± 0.0382, the “Tb. No.” value came out at 0.588 ± 0.034, the “Tb. Sp.” value turned out to be 0.529 ± 0.022 and the “Tb. Th.” value is given as 0.069 ± 0.002. In data set [2] (setting [6]), the SMI is on record as 1.615 ± 0.0434***^a, the “Tb. No.” value is reported as 0.759 ± 0.061***^b, the “Tb. Sp.” value is given as 0.502 ± 0.023 ^ and the “Tb. Th.” value is given as 0.070 ± 0.001 ^. In data set [2] (femur, 1 mg · kg^-1 · day^-1), the BV/TV is on record as 4.10 ± 0.253 %. Besides, in data set [2] (femur, 5 mg · kg^1 · day^1), the BV/TV is on record as 5.54 ± 0.739***^a %. Besides, in data set [2] (setting [7]), the SMI is reported as 2.46 ± 0.051, the “Tb. No.” value amounted to 0.222 ± 0.018, the “Tb. Sp.” value is recorded as 0.690 ± 0.013 and the “Tb. Th.” value is given as 0.064 ± 0.0015. Besides, in data set [2] (setting [8]), the SMI was determined as 2.43 ± 0.072, the “Tb. No.” value came to 0.266 ± 0.014, the “Tb. Sp.” value was found to be 0.671 ± 0.040 and the “Tb. Th.” value is 0.065 ± 0.001. In data set [2] (tibia, 1 mg · kg^-1 · day^-1), this compound registered a BV/TV of 1.67 ± 0.086 %. The compound also had a BV/TV in data set [2] (tibia, 5 mg · kg^1 · day^1) of 1.701 ± 0.120 %. In data set [3], the “mineralization of the bone marrow stromal cells” value is given as “significantly greater mineralization”.
Consider `C[C@]12CC[C@@H]3c4ccc(O)cc4CC[C@H]3[C@@H]1CC[C@@H]2O` [ESTRADIOL (E2), Estradiol], for which, in data set [4] (femur), the SMI is 2.41 ± 0.13, the “Tb. No.” value came out at 0.725 ± 0.024, the “Tb. Sp.” value was 0.86 ± 0.004 and the “Tb. Th.” value was determined as 0.78 ± 0.01. Also, the BV/TV in data set [4] (femur) was found to be 59.23 ± 30.19 %. For the same compound, in data set [4] (tibia), the SMI is listed as 2.24 ± 0.021, the “Tb. No.” value is 0.30 ± 0.02, the “Tb. Sp.” value is given as 1.29 ± 0.029 and the “Tb. Th.” value was found to be 0.10 ± 0.004. Further, the BV/TV in data set [4] (tibia) was found to be 3.04 ± 0.24 %. The “mineralization of the bone marrow stromal cells” value in data set [3] is “unable to increase mineralization”.

A word on the melting point: it is the temperature, or range, at which the solid turns liquid.
